In ChEMBL document CHEMBL3407419, “Multiple binding modes of isothiocyanates that inhibit macrophage migration inhibitory factor” (Eur J Med Chem, 2015) one finds IC50 data, which are given here for 30 compounds.

As usually defined, the IC50 is the midpoint of a concentration-inhibition curve.

Experiment [1] addresses T1, Macrophage migration inhibitory factor (Homo sapiens, UniProt P14174).
T1 sequence (P14174 whole entry): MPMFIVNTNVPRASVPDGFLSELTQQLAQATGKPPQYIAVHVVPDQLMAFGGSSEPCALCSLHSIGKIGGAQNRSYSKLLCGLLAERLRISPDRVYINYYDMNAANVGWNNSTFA
The experiment is described as follows: Inhibition of macrophage migration inhibitory factor tautomerase activity in human Jurkat T cells using L-dopachrome methyl ester as substrate incubated for 30 mins prior to substrate addition measured for 2 mins by spectrophotometric analysis. It counts as cell-based.

In experiment [2] the target is T1, Macrophage migration inhibitory factor. Briefly: Inhibition of human recombinant macrophage migration inhibitory factor tautomerase activity expressed in Escherichia coli DH5alpha using L-dopachrome methyl ester as substrate incubated for 5 mins prior to substrate addition measured 24 months post determination of initial value by spectrophotometric analysis.
The target is the same in experiment [3]. Briefly: Inhibition of macrophage migration inhibitory factor tautomerase activity in human Jurkat T cells using L-dopachrome methyl ester as substrate incubated for 30 mins prior to substrate addition measured 24 months post determination of initial value by spectrophotometric analysis. It counts as cell-based.
Experiment [4] shares this target. The experiment is described as follows: Inhibition of human recombinant macrophage migration inhibitory factor tautomerase activity expressed in Escherichia coli DH5alpha using L-dopachrome methyl ester as substrate incubated for 5 mins prior to substrate addition measured for 2 mins by spectrophotometric analysis.

In experiment [1], `CCC(N=C=S)c1ccccc1` (stereo unspecified) registered an IC50 of 21 µM.

`Oc1ccc(C(N=C=S)c2ccc(O)cc2)cc1`: in experiment [1], the IC50 was > 100 µM.

In experiment [1], `C[C@@H](N=C=S)c1ccccc1` registered an IC50 of 1.1 µM.

In experiment [1], `FC(F)(F)c1cccc(CN=C=S)c1` yielded an IC50 of 5.9 µM.

For the compound `Fc1cccc(CN=C=S)c1`, the IC50 in experiment [1] was found to be 1.5 µM; in experiment [2], 54 µM; in experiment [3], 11 µM.

With `Oc1ccc(CCN=C=S)cc1O`, the IC50 in experiment [4] worked out at 29 µM; in experiment [1], 4 µM.

With `CC(CN=C=S)c1ccc(O)cc1` (stereo unspecified), the IC50 in experiment [4] was determined as 28 µM; in experiment [1], 4.8 µM.

As to `S=C=NCCCCCCc1ccccc1` [PHENYLHEXYL ISOTHIOCYANATE], the IC50 in experiment [1] came to 4.2 µM.

As to `NS(=O)(=O)c1ccc(CN=C=S)cc1`, the IC50 in experiment [4] is 0.75 µM; in experiment [1], 0.5 µM.

`C[S+]([O-])CCCCN=C=S` (stereo unspecified) [SULFORAPHANE]: the values for the IC50 in experiment [4] and in experiment [1] were 11 µM and 2.2 µM, respectively.

Consider `S=C=NCCc1ccc(Cl)cc1`, for which the IC50 was determined as 1.1 µM in experiment [4] and 1.6 µM in experiment [1].

In turn, `OCCCCCCN=C=S` displayed an IC50 in experiment [1] of 5.1 µM.

For `Oc1ccc(CCN=C=S)cc1`, the IC50 came out at 3.6 µM in experiment [4] and 1.2 µM in experiment [1].

As for `S=C=NC(c1ccccc1)c1ccccc1`, the IC50 in experiment [1] was > 100 µM.

With `C=CCN=C=S` [ALLYL ISOTHIOCYANATE], the values for the IC50 in experiment [4] and in experiment [1] were 1.1 µM and 0.25 µM, respectively.

Take `CC(N=C=S)c1ccccc1` (stereo unspecified) [1-PHENYLETHYL ISOTHIOCYANATE]: the figures for the IC50 in experiment [4] and in experiment [1] were 1 µM and 2.8 µM, respectively.

For `FC(F)(F)c1cccc(CCN=C=S)c1`, the IC50 in experiment [1] came out at 10.4 µM.

Take `COc1ccc(CN=C=S)cc1`: the IC50 in experiment [4] worked out at 0.7 µM; in experiment [1] it was 3.9 µM.

On to `CCC(N=C=S)c1ccc(OC)cc1` (stereo unspecified), for which the IC50 in experiment [1] was 1.2 µM.

Turning to `FC(F)(F)c1ccc(CCN=C=S)cc1`, the figures for the IC50 in experiment [4] and in experiment [1] were 40 µM and 7.1 µM, respectively.

Regarding `O=C=NCCc1ccccc1` [PHENETHYL ISOCYANATE], the IC50 in experiment [1] is > 100 µM.

Compound `S=C=Nc1ccccc1` [PHENYLISOTHIOCYANATE] came in with an IC50 in experiment [1] of 11 µM.

Consider `Fc1ccc(CN=C=S)cc1`, for which the values for the IC50 in experiment [1], in experiment [2] and in experiment [3] were 0.54 µM, 31 µM and 9.6 µM, respectively.

With `CCC(N=C=S)c1ccc(O)cc1` (stereo unspecified), in experiment [1], the IC50 was > 100 µM.

For `N#CSCc1ccccc1` [BENZYL THIOCYANATE], the IC50 in experiment [1] is > 100 µM.

In the case of `S=C=NCCCCc1ccccc1` [PHENYLBUTYL ISOTHIOCYANATE], the IC50 in experiment [1] was 1.9 µM.

Consider `S=C=NCc1ccc2c(c1)OCO2`, for which the IC50 turned out to be 2.9 µM in experiment [4] and 5 µM in experiment [1].

The compound `COc1ccccc1OCCN=C=S` came in with an IC50 in experiment [1] of 1.8 µM.

`Oc1cccc(CCN=C=S)c1`: the figures for the IC50 in experiment [4] and in experiment [1] were 62 µM and 7.8 µM, respectively.

For `S=C=NCCCc1ccccc1`, it took 1.4 µM to reach half-maximal inhibition in experiment [1] (IC50).
